Reference: US8741955B2, “D-serine transporter inhibitors as pharmaceutical compositions for the treatment of central nervous system disorders” (Allergan, Inc., priority 2011, dated 2014)

Assays:
human ASCT1 = biological target: T1, human ASCT1 (Homo sapiens, UniProt P43007); assay: transport into HEK cells expressing ASCT1; format: cell-based
T1 construct: expressed in transfected cells; host or cells: HEK (human embryonic kidney) cells
T1 sequence (P43007 1-532): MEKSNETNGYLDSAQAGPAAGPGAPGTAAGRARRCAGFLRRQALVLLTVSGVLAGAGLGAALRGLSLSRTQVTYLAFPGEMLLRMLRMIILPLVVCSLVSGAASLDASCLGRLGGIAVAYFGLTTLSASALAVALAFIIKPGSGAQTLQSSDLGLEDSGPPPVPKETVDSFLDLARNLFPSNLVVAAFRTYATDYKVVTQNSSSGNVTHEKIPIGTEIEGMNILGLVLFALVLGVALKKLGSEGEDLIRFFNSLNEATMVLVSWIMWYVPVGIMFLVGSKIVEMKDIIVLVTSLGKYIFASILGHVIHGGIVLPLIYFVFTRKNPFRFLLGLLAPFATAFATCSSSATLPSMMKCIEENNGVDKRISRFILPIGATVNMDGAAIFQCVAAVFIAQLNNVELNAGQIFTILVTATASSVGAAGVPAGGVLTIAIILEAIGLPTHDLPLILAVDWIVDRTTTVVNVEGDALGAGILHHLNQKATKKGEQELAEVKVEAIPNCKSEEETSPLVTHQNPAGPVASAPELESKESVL
Experimental: Cell-based assays: the transport of [^3H]L- or D-serine was measured in primary cultures of rat hippocampal astrocytes or in human embryonic kidney (HEK) cells expressing ASCT transporter sub-types. For the astrocyte assays, cells were plated on either 24- or 96-well plates at a density of 50,000 cells per well. For the HEK assays, cells were plated on coated 96-well plates at a density of 80,000 cells/well. Assays were conducted in duplicate at room temperature in assay buffer consisting of: NaCl: 150 mM, KCl: 2 mM; MgCl2: 1 mM; CaCl2: 1 mM; HEPES: Tris buffer: 10 mM, pH7.4. To assess the sodium-dependence of transport, NaCl was replaced in the assay buffer by equimolar choline chloride. Following aspiration of growth medium and 2 washes with assay buffer, cells were incubated with [^3H]L- or D-serine at a final concentration of 1 μM for 5 min (astrocytes) or 1 min (HEK cells), after which the incubation medium was aspirated and the cells washed twice with ice-cold assay buffer. Cells containing radiolabel were solubilized in 100 μl of 1% Triton-X100 and an aliquot counted in a beta counter. IC50 values were determined over a range of at least 6 concentrations and derived from curve-fitting algorithms available in GraphPad Prism 4.

[1] = system: amphetamine-induced hyperlocomotion; details: systemic administration; Smith et al, 2009; cited from earlier work
[2] = system: amphetamine-induced hyperlocomotion in mice; assay: amphetamine induced hyperactivity; format: in vivo; details: systemic administration, amphetamine 2 mg/kg s.c.
Experimental: C57B/6 male mice (n=5-10/group) were placed in an open field apparatus and their activity was measured for 30 minutes. At 30 minutes, they received a vehicle injection or injection of test compound followed by an injection of amphetamine (2 mg/kg, s.c.) at minute 45. Their activity levels were subsequently measured for another 1 hour post-injection. Total activity for each 5 minute bin (21 total bins) was added to establish the activity curve over the 105 minute testing.

Row | SMILES | inhibition of [3H]L-serine transport in ASCT1-expressing HEK cells (human ASCT1) | transport of [3H]D-serine into ASCT1-expressing HEK cells (substrate) (human ASCT1; with and without extracellular sodium) | effect on amphetamine-induced hyperlocomotion (literature) [1] | effect on amphetamine-induced hyperactivity/hyperlocomotion [2]
1 | N[C@H](CO)C(=O)O [D-serine] | completely inhibited | transported into ASCT1-expressing HEK cells in a sodium-dependent manner | reduce amphetamine-induced hyperlocomotion | –
2 | N[C@H](C(=O)O)c1ccc(O)cc1 [L-4-hydroxyphenylglycine] | – | – | – | reduced amphetamine-induced hyperactivity in a dose-dependent manner
